Structures are written as SMILES. Read-outs that look alike come from different tables or passages of the source. A value given as a limit tells only on which side of the number the result lay.

Data set [1] concerns ventricular arrhythmia in mice produced by chloroform inhalation. Put plainly: Test I: antiarrhythmic activity for ventricular arrhythmia in mice produced by chloroform inhalation. It is filed as in vivo. The settings on record: for ED50: Mus musculus, ip, read-out: Antiarrhythmic activity, ED50. The source says:
I. Antiarrhythmic activity for ventricular arrhythmia in mice
produced by chloroform inhalation; ED50 expressed as mg/kg
body weight, intraperitoneal administration, J. W. Lawson, […]

Data set [2] can be described thus: in vivo. To be noted: mouse, in vivo, po. From the text:
(§1) II. AlD50 /ATD50 mouse treated orally; ALD50 is the
(§2) lethal dose for half the animals; ATD50 is the approximate
(§3) lowest dose where signs of physiologic or neurologic deficit
(§4) appear in half the animals, expressed as mg/kg body weight.

The nature of data set [3]: clinical. To be noted: for half-life: human. Here is the method: III. Time following oral dosing of humans with 75 mg. of encainide
hydrochloride for clearance (plasma concentration <20 ng./ml.)
from blood plasma; hours.
IV. Approximate half life in human blood plasma following oral
dosing with encainide hydrochloride; hours.
A. Extraction of Biological Fluid.
B. High Pressure Liquid Chromatography (HPLC) Conditions. […] These standards were treated as described above.

The conditions of data set [4]: man, two or more hours following 50 mg. dose of encainide hydrochloride orally.
Description: A. Extraction of Biological Fluid. To 1 ml of plasma or urine in a screw-capped tube there is added 0.2 ml of 0.5 M. Tris-HCl buffer (2-amino-2-hydroxymethyl-1,3-propanediol), pH 8.5, and 10 ml of n-butyl chloride containing 5% by volume of isopropanol. The sample is then shaken on an oscillating mixer followed by centrifugation to separate the phases. A 9 ml aliquot of the organic layer is removed and evaporated to dryness under a stream of nitrogen and the residue is redissolved in 100 mcl of ethanol. A 50 mcl aliquot of this solution is injected onto the column for high pressure liquid chromatography.
B. High Pressure Liquid Chromatography (HPLC) Conditions. A normal phase silicic acid column having dimensions 3.9 mm by 30 cm in length equipped with a variable wavelength UV detector set at 254 nm is used. The mobil phase employed consists of 500 ml of ethanol, 30 ml of water, and 0.1 ml of methanesulfonic acid at a flow rate of 1 ml per minute. A series of standards containing 0, 25, 100 and 500 ng/ml of each compound to be assayed was prepared using pooled human plasma. These standards were treated as described above. Quantification of the detector response was achieved by digital integration or measurement of peak heights. The standard curve for each component was constructed by linear regression of the detector response versus concentration from the plasma standards. […]
In data set [5] the test system is mouse. The data set is described as follows: Test II: approximation of the oral toxicity in mice (ALD50/ATD50). To be noted: comparison among the tabulated compounds, mice.
Description: as §1, §2, §3, §4

The conditions of data set [6]: following treatment with encainide; cited from earlier work.
The mark [7] stands for this setting: mice, chloroform inhalation, intraperitoneal administration, ranges are of various determinations.

Take `COc1cccc(C(=O)Nc2ccccc2CCC2CCCCN2C)c1` (stereo not drawn) [compound 108]: the ED50 (as a rule, the dose that gives a 50% effect, or the effect in half of the subjects) in data set [1] (setting [7]) is 10 mg/kg. For the same compound, in data set [2], the LD50 (in general, the dose expected to kill half of the subjects tested) amounted to 100 mg/kg and the TD50 fell in the range of 10 to 25 mg/kg.
As for `COc1ccc(C(=O)Nc2ccccc2CCC2CCCCN2C)cc1` (stereo not drawn) [Compound No. 107, encainide], the ED50 in data set [1] (setting [7]) was 5.3 to 15 mg/kg. In addition, in data set [2], the LD50 is 50 to 100 mg/kg and the TD50 lay within 5 to 10 mg/kg. Also, in data set [3] (in vivo, po), the half-life (in general, the time needed for the level to fall by half in the phase considered) is 2.5 to 3 h and the “Time following oral dosing for clearance (plasma concentration <20 ng./ml.) from blood plasma” value (shortened to “Time following oral dosing for clearance”) turned out to be 6 h.
As for `COc1ccc(C(=O)Nc2ccccc2CCC2CCCCN2C)cc1OC` (stereo not drawn) [compound 109], the ED50 in data set [1] (setting [7]) was determined as 10 mg/kg. In data set [2], this compound had a median lethal dose (LD50) of 100 mg/kg and a TD50 of 25 mg/kg.
Turning to `COc1ccc(C(=O)Nc2ccccc2CCC2CCCCN2)cc1` (stereo not drawn) [compound 139, N-demethylencainide], the ED50 in data set [1] (setting [7]) was 28 mg/kg. Also, in data set [2], the LD50 worked out at 147 mg/kg and the TD50 came to 15.7 mg/kg.
As to `COc1cc(C(=O)Nc2ccccc2CCC2CCCCN2C)ccc1O` (stereo not drawn) [Compound A, 4-Hydroxy-3-methoxy-N-[2-[2-(1-methyl-2-piperidinyl)ethyl]phenyl]benzamide], the “Concentration in blood plasma relative to Compound No. 89” value in data set [4] is “substantially greater”. In addition, the ED50 in data set [1] (setting [7]) came out at 9.5 mg/kg. The “Toxicity (in words)” value in data set [5] was “reduced toxicity”. In data set [2], this compound returned an LD50 of 250 mg/kg and a TD50 of 31.3 to 62.5 mg/kg. Besides, in data set [3] (in vivo, po), the half-life was in the range of 4 to 6 h, the “Presence in the blood (in words)” value was “more prolonged presence in the blood” and the “Time following oral dosing for clearance” value was above 16 h.
Consider `CN1CCCCC1CCc1ccccc1NC(=O)c1ccc(O)cc1` (stereo not drawn) [Compound No. 89, O-demethylencainide], for which the median effective dose (ED50) in data set [1] was 1.7 to 2.8 mg/kg. The “Antiarrhythmic activity (in words)” value in data set [1] (comparison among the tabulated compounds, mice) was “somewhat more potent”. Besides, in data set [5], the “Toxicity (in words)” value is “somewhat more toxic in mice”. In data set [2], this compound yielded an LD50 of 25 to 50 mg/kg and a TD50 of 5 to 10 mg/kg. In addition, in data set [3] (in vivo, po, 75 mg), the half-life lay within 4 to 6 h. The “Time following oral dosing for clearance” value in data set [3] (humans dosed orally with 75 mg. of encainide hydrochloride) is above 16 h. Further, in data set [6], the “Amount in plasma relative to encainide” value is “several times the concentration of encainide”.

Values taken from patent publication US4332803A, “Benzanilide derivative” (Mead Johnson & Company, priority 1980, dated 1982).
